Source: patent publication US9737523B2, “Anti-fibrogenic compounds, methods and uses thereof” (priority 2013, dated 2017)

Test system: MMP-2
Assay: MMP-2 expression in human dermal fibroblasts, Western blot
Assay type: cell-based
Conditions: various concentrations, 48 hours
Protocol: In another set of experiments, fibroblasts at 80% confluence were treated with either kynurenine or tryptophan at the indicated concentrations as mentioned in the result section in DMEM containing 2% FBS and antibiotics for 48 hours. Cells were then harvested by trypsinization and western blot analysis was performed.
Cells were harvested by Trypsin/EDTA and lysed with cell lysis buffer containing 50 mM Tris-HCl (pH7.40), 150 mM NaCl, 10 mM EDTA, 5 mM EGTA, 1% TritonX-100™, 0.5% Igepal CA-630, 0.025% NaN3 and protease inhibitor cocktail (Sigma™). Cell debris was removed by centrifugation at 20,000×g for 10 minutes. The protein concentration in supernatant was determined using the MicroBCA™ method (Pierce™, Rockford, Ill.). Proteins in supernatant were mixed with protein sample loading buffer (final concentration: 60 mM Tris-HCl (pH 6.80), 2% SDS, 10% glycerol, 1.5% β-mercaptoethanol, 0.002% bromophenol blue) and size fractioned by 10% of SDS-polyacrylamide gel. After proteins were transferred onto nitrocellulose membrane by iBlot™ (Invitrogen Life Technologies™), non-specific binding were blocked with phosphate buffer saline twenty 20 (PBS-T) containing 5% skim milk for 1 hour. The membrane was then incubated with primary antibody overnight. […]

SMILES: Nc1ccccc1C(=O)CC(N)C(=O)O (racemic) [kynurenine]
- MMP-2 expression versus untreated fibroblasts: no significant difference
